Data from patent publication US11116710B2, “Antimicrobial compositions” (SYMRISE AG, priority 2016, dated 2021).

Key:
Pseudomonas aeruginosa = assay: Minimum inhibitory concentration (MIC) according to DIN 58940; type: cell-based; details: for MIC: Pseudomonas aeruginosa, read-out: MIC values (ppm) Pseudomonas aeruginosa
Procedure: (§1) The invention will be further described in the following on the basis of examples. The examples serve to illustrate the invention, without thereby restricting the scope of protection of the claims. For examples, 1 to 11 preservative challenge tests according to European Pharmacopoeia 7.0 (5.1.3. Efficacy of antimicrobial preservation) were used. For example 12, activities were determined by measuring minimum inhibitory concentrations (MIC values) according to DIN 58940. All numerical information relates to weight, unless stated otherwise.
(§2) The activity of Benzoic acid-3-hydroxypropylester (BAHP), Furoic acid-3-hydroxypropylester (FAHP) and Anisic acid-3-hydroxypropylester (AAHP), Salicylic acid hydroxyethyl ester (SAHE) and Salicylic acid hydroxypropyl ester (SAHP) was determined against the microorganisms Staphylococcus aureus, Candida albicans, Aspergillus brasiliensis, Pseudomonas aeruginosa and Escherichia coli. The activity of N-Methylsalicylamid (MSA), Furoic acid methylester (FAME) and Salicylamide (SA) was determined against the microorganism Aspergillus brasiliensis.

Aspergillus brasiliensis = assay: as above; type: cell-based; details: for MIC: Aspergillus brasiliensis, read-out: MIC values (ppm) Aspergillus brasiliensis
Procedure: as §1, §2

Escherichia coli = assay: as above; type: cell-based; details: for MIC: Escherichia coli, read-out: MIC values (ppm) Escherichia coli
Procedure: as §1, §2

Staphylococcus aureus = assay: as above; type: cell-based; details: for MIC: Staphylococcus aureus, read-out: MIC values (ppm) Staphylococcus aureus
Procedure: as §1, §2

Candida albicans = assay: as above; type: cell-based; details: for MIC: Candida albicans, read-out: MIC values (ppm) Candida aibicans
Procedure: as §1, §2

[1] = test system: spores of A. brasiliensis; assay: Preservative challenge test (European Pharmacopoeia 7.0, 5.1.3) in anionic emulsion with Dracorin CE; type: cell-based, Aspergillus brasiliensis
Procedure: as §1
(§3) Activity of Benzoic acid-3-hydroxypropylester (BAHP) against the microorganisms E. coli, P. aeruginosa, S. aureus, C. albicans and spores of A. brasiliensis was evaluated in an anionic emulsion with Dracorin CE as emulsifier. The pH value of the emulsion was 5.5.
(§4) Activity of Furoic acid-3-hydroxypropylester (FAHP) against the microorganisms E. coli, P. aeruginosa, S. aureus, C. albicans and spores of A. brasiliensis was evaluated in an anionic emulsion with Dracorin CE as emulsifier. The pH value of the emulsion was 5.5.
(§5) Activity of Anisic acid-3-hydroxypropylester (AAHP) against the microorganisms E. coli, P. aeruginosa, S. aureus, C. albicans and spores of A. brasiliensis was evaluated in an anionic emulsion with Dracorin CE as emulsifier. The pH value of the emulsion was 5.5.
Activity of N-Methylsalicylamid (MSA) against the microorganism A. brasiliensis was evaluated in an anionic emulsion with Dracorin CE as emulsifier. The pH value of the emulsion was 5.5.
Activity of Furoic acid methylester (FAME) against the microorganism A. brasiliensis was evaluated in an anionic emulsion with Dracorin CE as emulsifier. The pH value of the emulsion was 5.5.
Activity of Salicylamide (SA) against the microorganism A. brasiliensis was evaluated in an anionic emulsion with Dracorin CE as emulsifier. The pH value of the emulsion was 5.5.
Activity of Salicylic acid hydroxyethyl ester (SAHE) against the microorganism A. brasiliensis was evaluated in an anionic emulsion with Dracorin CE as emulsifier. The pH value of the emulsion was 5.5.
Activity of Salicylic acid hydroxypropyl ester (SAHP) against the microorganism A. brasiliensis was evaluated in an anionic emulsion with Dracorin CE as emulsifier. The pH value of the emulsion was 5.5.
Activity of Benzoic acid-3-hydroxypropylester (BAHP) against spores of A. brasiliensis was evaluated in an anionic emulsion with Dracorin CE as emulsifier. The pH value of the emulsion was 7.
Activity of Anisic acid-3-hydroxypropylester (AAHP) against spores of A. brasiliensis was evaluated in an anionic emulsion with Dracorin CE as emulsifier. The pH value of the emulsion was 7. […]

P. aeruginosa = assay: as above; type: cell-based, Pseudomonas aeruginosa; details: pH 5.5
Procedure: as §1, §3, §4, §5
(§6) Synergistic effects between Benzoic acid-3-hydroxypropylester (BAHP) and 1,2-Octanediol were determined. Activity of BAHP, 1,2-Octanediol and the combination of BAHP and 1,2-Octanediol against the microorganisms E. coli, P. aeruginosa, S. aureus, C. albicans and spores of A. brasiliensis was evaluated in an anionic emulsion with Dracorin CE as emulsifier. The pH value of the emulsion was 5.5.

E. coli = assay: as above; type: cell-based, Escherichia coli; details: pH 5.5
Procedure: as §1, §3, §4, §5, §6

S. aureus = assay: as above; type: cell-based, Staphylococcus aureus; details: pH 5.5
Procedure: as §1, §3, §4, §5, §6

C. albicans = assay: as above; type: cell-based, Candida albicans; details: pH 5.5
Procedure: as §1, §3, §4, §5, §6

[2] = day 14, 1.0% in anionic emulsion, pH 5.5
[3] = day 28, 1.0% in anionic emulsion, pH 5.5
[4] = day 2, 1.0% in anionic emulsion
[5] = day 7, 1.0% in anionic emulsion
[6] = day 14, 1.0% in anionic emulsion
[7] = day 28, 1.0% in anionic emulsion
[8] = day 2, 0.75% in anionic emulsion
[9] = day 7, 0.75% in anionic emulsion
[10] = day 14, 0.75% in anionic emulsion
[11] = day 28, 0.75% in anionic emulsion

O=C(OCCCO)c1ccccc1O [SAHP, Salicylic acid hydroxypropyl ester]
2500 mg/L: MIC (Escherichia coli) | MIC (Candida albicans)
1000 mg/L: MIC (Aspergillus brasiliensis) | MIC (Staphylococcus aureus)
> 1000 mg/L: MIC (Pseudomonas aeruginosa)

O=C(OCCO)c1ccccc1O [SAHE, Salicylic acid hydroxyethyl ester]
> 1000 mg/L: MIC (Pseudomonas aeruginosa) | MIC (Staphylococcus aureus)
2000 mg/L: MIC (Escherichia coli)
2500 mg/L: MIC (Aspergillus brasiliensis) | MIC (Candida albicans)

NC(=O)c1ccccc1O [SA, Salicylamide]
<10 cfu/g formulation: Colony counts (cfu/g formulation) [1, 3]
2500 mg/L: MIC (Aspergillus brasiliensis)
2.0E+03 cfu/g formulation: Colony counts (cfu/g formulation) [1, 2]

COC(=O)c1ccco1 [FAME, Furoic acid methylester]
<10 cfu/g formulation: Colony counts (cfu/g formulation) [1, 3]
> 1000 mg/L: MIC (Aspergillus brasiliensis)

CNC(=O)c1ccccc1O [MSA, N-Methylsalicylamid]
<10 cfu/g formulation: Colony counts (cfu/g formulation) ([1]; day 7, 1.0% in anionic emulsion, pH 5.5) | Colony counts (cfu/g formulation) [1, 2] | Colony counts (cfu/g formulation) [1, 3]
1000 mg/L: MIC (Aspergillus brasiliensis)

O=C(OCCCO)c1ccco1 [FAHP, Furoic acid-3-hydroxypropylester]
<10 cfu/g formulation: Colony counts (cfu/g formulation) (P. aeruginosa; [4]) | Colony counts (cfu/g formulation) (P. aeruginosa; [5]) | Colony counts (cfu/g formulation) (P. aeruginosa; [6]) | Colony counts (cfu/g formulation) (P. aeruginosa; [7]) | Colony counts (cfu/g formulation) (E. coli; [4]) | Colony counts (cfu/g formulation) (E. coli; [5]) | Colony counts (cfu/g formulation) (E. coli; [6]) | Colony counts (cfu/g formulation) (E. coli; [7]) | Colony counts (cfu/g formulation) (S. aureus; [4]) | Colony counts (cfu/g formulation) (S. aureus; [5]) | Colony counts (cfu/g formulation) (S. aureus; [6]) | Colony counts (cfu/g formulation) (S. aureus; [7]) | Colony counts (cfu/g formulation) (C. albicans; [6]) | Colony counts (cfu/g formulation) (C. albicans; [7])
5000 ppm: MIC values (ppm) Aspergillus brasiliensis (Aspergillus brasiliensis)
>5000 ppm: MIC values (ppm) Pseudomonas aeruginosa (Pseudomonas aeruginosa) | MIC values (ppm) Escherichia coli (Escherichia coli) | MIC values (ppm) Staphylococcus aureus (Staphylococcus aureus) | MIC values (ppm) Candida aibicans (Candida albicans; DIN 58940)

O=C(OCCCO)c1ccccc1 [BAHP, Benzoic acid-3-hydroxypropylester]
2500 mg/L: MIC (Aspergillus brasiliensis) | MIC (Candida albicans)
<10 cfu/g formulation: Colony counts (cfu/g formulation) (P. aeruginosa; [8]) | Colony counts (cfu/g formulation) (P. aeruginosa; [4]) | Colony counts (cfu/g formulation) (P. aeruginosa; [9]) | Colony counts (cfu/g formulation) (P. aeruginosa; [5]) | Colony counts (cfu/g formulation) (P. aeruginosa; [10]) | Colony counts (cfu/g formulation) (P. aeruginosa; [6]) | Colony counts (cfu/g formulation) (P. aeruginosa; [11]) | Colony counts (cfu/g formulation) (P. aeruginosa; [7]) | Colony counts (cfu/g formulation) (E. coli; [8]) | Colony counts (cfu/g formulation) (E. coli; [4]) | Colony counts (cfu/g formulation) (E. coli; [9]) | Colony counts (cfu/g formulation) (E. coli; [5]) | Colony counts (cfu/g formulation) (E. coli; [10]) | Colony counts (cfu/g formulation) (E. coli; [6]) | Colony counts (cfu/g formulation) (E. coli; [11]) | Colony counts (cfu/g formulation) (E. coli; [7]) | Colony counts (cfu/g formulation) (S. aureus; [4]) | Colony counts (cfu/g formulation) (S. aureus; [9]) | Colony counts (cfu/g formulation) (S. aureus; [5]) | Colony counts (cfu/g formulation) (S. aureus; [10]) | Colony counts (cfu/g formulation) (S. aureus; [6]) | Colony counts (cfu/g formulation) (S. aureus; [11]) | Colony counts (cfu/g formulation) (S. aureus; [7]) | Colony counts (cfu/g formulation) [1, 2] | Colony counts (cfu/g formulation) ([1]; day 14, 1.0% in anionic emulsion, pH 7) | Colony counts (cfu/g formulation) [1, 3] | Colony counts (cfu/g formulation) ([1]; day 28, 1.0% in anionic emulsion, pH 7) | Colony counts (cfu/g formulation) (C. albicans; [9]) | Colony counts (cfu/g formulation) (C. albicans; [5]) | Colony counts (cfu/g formulation) (C. albicans; [10]) | Colony counts (cfu/g formulation) (C. albicans; [6]) | Colony counts (cfu/g formulation) (C. albicans; [11]) | Colony counts (cfu/g formulation) (C. albicans; [7])
2000 mg/L: MIC (Escherichia coli)
5000 mg/L: MIC (Staphylococcus aureus)
> 5000 mg/L: MIC (Pseudomonas aeruginosa)

CCCCCCC(O)CO (stereo not shown) [1,2-Octanediol, reference compound]
<10 cfu/g formulation: Colony counts (cfu/g formulation) (P. aeruginosa; [8]) | Colony counts (cfu/g formulation) (P. aeruginosa; [9]) | Colony counts (cfu/g formulation) (P. aeruginosa; [10]) | Colony counts (cfu/g formulation) (P. aeruginosa; [11]) | Colony counts (cfu/g formulation) (E. coli; [8]) | Colony counts (cfu/g formulation) (E. coli; [9]) | Colony counts (cfu/g formulation) (E. coli; [10]) | Colony counts (cfu/g formulation) (E. coli; [11]) | Colony counts (cfu/g formulation) (S. aureus; [8]) | Colony counts (cfu/g formulation) (S. aureus; [9]) | Colony counts (cfu/g formulation) (S. aureus; [10]) | Colony counts (cfu/g formulation) (S. aureus; [11]) | Colony counts (cfu/g formulation) (C. albicans; [9]) | Colony counts (cfu/g formulation) (C. albicans; [10]) | Colony counts (cfu/g formulation) (C. albicans; [11])
